Experiment [1] deals with Puccinia triticina. Kind of experiment: Fungicidal activity: wheat brown rust (PUCCRT), wheat seedlings, booth sprayer to run-off or track spray. Type of experiment: in vivo. Particulars: for pest or weed control at 100 ppm: High-Volume Cereal Activity at 100 ppm; for pest or weed control at 121.5 g/ha: Low-Volume Cereal Activity at 121.5 g/H. On the procedure: All fungicides were evaluated using the aforementioned method for their activity vs. all target diseases. Wheat leaf blotch and brown rust activity were also evaluated using track spray applications, in which case the fungicides were formulated as EC formulations, containing 0.1% Trycol 5941 in the spray solutions. Wheat plants (variety Yuma) were grown from seed in a greenhouse in 50% mineral soil/50% soil-less Metro mix until the first leaf was fully emerged, with 7-10 seedlings per pot. These plants were inoculated with an aqueous spore suspension of Puccinia triticina either prior to or after fungicide treatments. […] The plants were then transferred to a greenhouse set at 24° C. for disease to develop. Fungicide formulation, application and disease assessment followed the procedures as described in the Example A.

Experiment [2] concerns Zymoseptoria tritici. Kind of experiment: Fungicidal activity: leaf blotch of wheat (SEPTTR), wheat seedlings, booth sprayer to run-off or track spray. The class given is in vivo. Particulars: for pest or weed control at 100 ppm: High-Volume Cereal Activity at 100 ppm; for pest or weed control at 121.5 g/ha: Low-Volume Cereal Activity at 121.5 g/H. On the procedure:
All fungicides were evaluated using the aforementioned method for their activity vs. all target diseases. Wheat leaf blotch and brown rust activity were also evaluated using track spray applications, in which case the fungicides were formulated as EC formulations, containing 0.1% Trycol 5941 in the spray solutions. Wheat plants (variety Yuma) were grown from seed in a greenhouse in 50% mineral soil/50% soil-less Metro mix until the first leaf was fully emerged, with 7-10 seedlings per pot. These plants were inoculated with an aqueous spore suspension of Zymoseptoria tritici either prior to or after fungicide treatments. After inoculation the plants were kept in 100% relative humidity (one day in a dark dew chamber followed by two to three days in a lighted dew chamber at 20° C.) to permit spores to germinate and infect the leaf. The plants were then transferred to a greenhouse set at 20° C. for disease to develop. When disease symptoms were fully expressed on the 1st leaves of untreated plants, infection levels were assessed on a scale of 0 to 100 percent disease severity. Percent disease control was calculated using the ratio of disease severity on treated plants relative to untreated plants.

Setting [3] is: 24 h, 1 Day Protectant, read-out: PUCCRT 1DP.
Setting [4] is: 24 h, 1 Day Protectant, read-out: SEPTTR 1DP.
The mark [5] stands for this setting: 3DC (Day Curative), read-out: SEPTTR 3DC.
Where [6] appears, read: 72 h, 3 Day Curative, read-out: PUCCRT 3DC.
The mark [7] stands for this setting: 3DC (Day Curative), read-out: PUCCRT 3DC.
The mark [8] stands for this setting: 72 h, 3 Day Curative, read-out: SEPTTR 3DC.

The values that follow come from patent US10173971B2, “Picolinamides with fungicidal activity” (DOW AGROSCIENCES LLC, priority 2014, dated 2019).

Read-outs that look alike come from different tables or passages of the source.

With `CC[C@H](NC(=O)c1nccc(OC)c1O)C(=O)O[C@@H](C)C(Cc1cccc(OC)c1)Cc1cccc(OC)c1` [compound 153], the results for the pest or weed control at 100 ppm in experiment [1] (setting [3]), in experiment [2] (setting [4]) and in experiment [2] (setting [5]) were 80 to 100%, 0 to 80% and 0 to 80%, respectively.

As for `COc1ccc(CC(Cc2ccc(OC)cc2)[C@H](C)OC(=O)[C@H](C)NC(=O)c2nccc(OC)c2O)cc1` [compound 154], the pest or weed control at 100 ppm in experiment [1] (setting [3]) and in experiment [2] (setting [4]) was 80 to 100% each time.

`COc1ccc(C[C@H](COc2ccc(F)cc2F)[C@H](C)OC(=O)[C@H](C)NC(=O)c2nccc(OC)c2O)cc1` [compound 160]: the figures for the pest or weed control at 100 ppm in experiment [1] (setting [3]) and in experiment [2] (setting [4]) were 80 to 100% and 0 to 80%, respectively.

On to `CCCOC[C@@H](Cc1ccccc1)[C@H](C)OC(=O)[C@H](C)NC(=O)c1nccc(OC)c1OCOC(C)=O` [compound 162], for which the pest or weed control at 100 ppm in experiment [1] (setting [3]), in experiment [1] (setting [7]), in experiment [2] (setting [4]) and in experiment [2] (setting [5]) was 80 to 100% throughout. Further, the pest or weed control at 121.5 g/ha in experiment [1] (setting [3]), in experiment [1] (setting [6]), in experiment [2] (setting [4]) and in experiment [2] (setting [8]) was 80 to 100% in each case.

Regarding `CCCO[C@@H](CC)[C@@H](Cc1ccccc1)[C@H](C)OC(=O)[C@@H](C)NC(=O)c1nccc(OC)c1OCOC(C)=O` [compound 163], the pest or weed control at 100 ppm in experiment [1] (setting [3]) was in the range of 80 to 100%; in experiment [1] (setting [7]), 80 to 100%; in experiment [2] (setting [4]) it was 0 to 80%; in experiment [2] (setting [5]), 0 to 80%.

As to `CCCO[C@@H](CC)[C@@H](Cc1ccccc1)[C@H](C)OC(=O)[C@H](CC)NC(=O)c1nccc(OC)c1OCOC(C)=O` [compound 164], the pest or weed control at 100 ppm in experiment [1] (setting [3]), in experiment [1] (setting [7]), in experiment [2] (setting [4]) and in experiment [2] (setting [5]) was 80 to 100% throughout. For the same compound, the pest or weed control at 121.5 g/ha in experiment [1] (setting [3]) was in the range of 80 to 100%; in experiment [1] (setting [6]), 80 to 100%; in experiment [2] (setting [4]) it was 0 to 80%; in experiment [2] (setting [8]) it was 0 to 80%.

With `CCCO[C@H](CC)[C@@H](Cc1ccccc1)[C@H](C)OC(=O)[C@@H](C)NC(=O)c1nccc(OC)c1OCOC(C)=O` [compound 165], the pest or weed control at 100 ppm in experiment [1] (setting [3]) lay in the range of 0 to 80%; in experiment [1] (setting [7]) it was 80 to 100%; in experiment [2] (setting [4]) it was 80 to 100%; in experiment [2] (setting [5]) it was 0 to 80%.

Consider `CCCOC[C@@H](Cc1ccccc1)[C@H](C)OC(=O)[C@@H](C)NC(=O)c1nccc(OC)c1OCOC(C)=O` [compound 166], for which the pest or weed control at 100 ppm lay in the range of 80 to 100% in experiment [1] (setting [3]), 80 to 100% in experiment [1] (setting [7]), 0 to 80% in experiment [2] (setting [4]) and 0 to 80% in experiment [2] (setting [5]).

In the case of `CCCOC[C@@H](Cc1ccccc1)[C@H](C)OC(=O)[C@H](CC)NC(=O)c1nccc(OC)c1OCOC(C)=O` [compound 167], the pest or weed control at 100 ppm in experiment [1] (setting [3]), in experiment [1] (setting [7]), in experiment [2] (setting [4]) and in experiment [2] (setting [5]) was 80 to 100% in each case. Besides, the pest or weed control at 121.5 g/ha in experiment [1] (setting [3]) is 80 to 100%; in experiment [1] (setting [6]) it was 80 to 100%; in experiment [2] (setting [4]), 80 to 100%; in experiment [2] (setting [8]), 0 to 80%.

`CCCO[C@@H](CC)[C@@H](Cc1ccccc1)[C@H](C)OC(=O)[C@H](C)NC(=O)c1nccc(OC)c1OCOC(C)=O` [compound 168]: the pest or weed control at 100 ppm in experiment [1] (setting [3]), in experiment [1] (setting [7]), in experiment [2] (setting [4]) and in experiment [2] (setting [5]) was 80 to 100% in each case. Moreover, the pest or weed control at 121.5 g/ha in experiment [1] (setting [3]) was in the range of 80 to 100%; in experiment [1] (setting [6]) it was 80 to 100%; in experiment [2] (setting [4]) it was 80 to 100%; in experiment [2] (setting [8]) it was 0 to 80%.
